The values below are quoted from earlier work in US8409610B2, “Wound care device” (Coloplast A/S, priority 2003, dated 2013).

For the series the following is noted: reported values, given as examples.
Take `CC(=O)Oc1ccccc1C(=O)O` [Acetylsalicylic acid]: the “minimum plasma concentration for obtaining systemic effect” value (“minimum plasma concentration” for short) is 270 µg/mL.
On to `CC(C)Cc1ccc(C(C)C(=O)O)cc1` (stereo not shown) [Ibuprofen], for which the “minimum plasma concentration” value was 10 µg/mL.
On to `CN1C(C(=O)Nc2ccccn2)=C(O)c2ccccc2S1(=O)=O` [Piroxicam], for which the “minimum plasma concentration” value was 1 µg/mL.
Regarding `CC(C(=O)O)c1cccc(C(=O)c2ccccc2)c1` (stereo not shown) [Ketoprofen], the “minimum plasma concentration” value is 3 µg/mL.
